Patent US20250084049A1, “POLYCATIONIC SALTS OF PHENOLIC COMPOUNDS AND USES THEREOF” (Firmenich Incorporated, priority 2021, published 2025)

Test: storage of the aqueous salt solution at room temperature under nitrogen
Type: physicochemical
Settings: ~10% aqueous solution, stored for several days at room temperature under nitrogen
Protocol: Naringenin (500 mg, 1.84 mmol) was suspended in water (2 mL) and while stirring a solution of NaOH (2 equiv.) in water (3 mL) was added dropwise. After addition was complete, the reaction was bubbled with nitrogen and stirring continued until the solution became homogeneous. […] MS 273 (M+3H−2Na)^+.
Naringenin (500 mg, 1.84 mmol) was suspended in water (2 mL) and while stirring a solution of KOH (2 equiv.) in water (3 mL) was added dropwise. After addition was complete, the reaction was bubbled with nitrogen and stirring continued until the solution became homogeneous. […] MS 273 (M+3H−2K)^+.
Phloterin (500 mg, 1.82 mmol) was suspended in water (2 mL) and while stirring a solution of NaOH (2 equiv.) in water (3 mL) was added dropwise. After addition was complete, the reaction was bubbled with nitrogen and stirring continued until the solution became homogeneous. […] MS 275 (M+3H−2Na)^+.
Phloterin (500 mg, 1.82 mmol) was suspended in water (2 mL) and while stirring a solution of KOH (2 equiv.) in water (3 mL) was added dropwise. After addition was complete, the reaction was bubbled with nitrogen and stirring continued until the solution became homogeneous. […] MS 275 (M+3H−2K)^+.

SMILES | stability of the solution on storage
O=C1C[C@@H](c2ccc(O)cc2)Oc2cc(O)cc(O)c21.[Na].[Na] [Example 1, Disodium Salt of Naringenin] | without any significant change
O=C1C[C@@H](c2ccc(O)cc2)Oc2cc(O)cc(O)c21.[K].[K] [Example 2, Dipotassium Salt of Naringenin] | without any significant change
O=C(CCc1ccc(O)cc1)c1c(O)cc(O)cc1O.[Na].[Na] [Example 3, Disodium Salt of Phloterin] | without any significant change
O=C(CCc1ccc(O)cc1)c1c(O)cc(O)cc1O.[K].[K] [Example 4, Dipotassium Salt of Phloterin] | without any significant change
